Reference: BindingDB's records for doi:10.1021/jm030317k (Astrazeneca, 2004)

Legend:
[1] = biological target: Fibroblast growth factor receptor 1 (Homo sapiens, UniProt P11362); assay: In Vitro Src Kinase Inhibition Test
Description: (§1) This assay determines the ability of test compounds to inhibit Src kinase activity that catalyzes the transfer of the terminal phosphate to the immobilized poly (Glu,Tyr) substrate detected using anti-phosphotyrosine monoclonal antibody conjugated to alkaline phosphatase. IC50 values for compound enzyme inhibition were obtained using KC3 Kineticalc software (Bio-Tek Instruments) following subtraction of the blank values.

[2] = biological target: Vascular endothelial growth factor receptor 1 (Homo sapiens, UniProt P17948); assay: In Vitro Src Kinase Inhibition Test
Description: as §1

[3] = biological target: Proto-oncogene tyrosine-protein kinase Src (Homo sapiens, UniProt P12931); assay: In Vitro Src Kinase Inhibition Test; details: pH 7.4; 22 °C
Description: as §1

[4] = biological target: T1, Vascular endothelial growth factor receptor 2 (Homo sapiens, UniProt P35968); assay: VEGF-R Kinase Inhibition Assay; details: 25 °C
Protocol: An ELISA assay was used to determine the ability of inhibitor to inhibit VEGF-RRTK activity. The compounds were incubated with enzyme 20 min at room temperature, with 2uM ATP in 96-well plates coated with a poly(Glu, Ala, Tyr) 6:3:1 random copolymer substrate. Phosphorylated tyrosine was then detected by sequential in cubation with anti-phosphotyrosine antibody. IC50 data were interpolated by nonlinear regression using Microcal Origin software.

[5] = biological target: T1, Vascular endothelial growth factor receptor 2; assay: In Vitro Src Kinase Inhibition Test
Description: as §1

T1 sequence (P35968 whole entry): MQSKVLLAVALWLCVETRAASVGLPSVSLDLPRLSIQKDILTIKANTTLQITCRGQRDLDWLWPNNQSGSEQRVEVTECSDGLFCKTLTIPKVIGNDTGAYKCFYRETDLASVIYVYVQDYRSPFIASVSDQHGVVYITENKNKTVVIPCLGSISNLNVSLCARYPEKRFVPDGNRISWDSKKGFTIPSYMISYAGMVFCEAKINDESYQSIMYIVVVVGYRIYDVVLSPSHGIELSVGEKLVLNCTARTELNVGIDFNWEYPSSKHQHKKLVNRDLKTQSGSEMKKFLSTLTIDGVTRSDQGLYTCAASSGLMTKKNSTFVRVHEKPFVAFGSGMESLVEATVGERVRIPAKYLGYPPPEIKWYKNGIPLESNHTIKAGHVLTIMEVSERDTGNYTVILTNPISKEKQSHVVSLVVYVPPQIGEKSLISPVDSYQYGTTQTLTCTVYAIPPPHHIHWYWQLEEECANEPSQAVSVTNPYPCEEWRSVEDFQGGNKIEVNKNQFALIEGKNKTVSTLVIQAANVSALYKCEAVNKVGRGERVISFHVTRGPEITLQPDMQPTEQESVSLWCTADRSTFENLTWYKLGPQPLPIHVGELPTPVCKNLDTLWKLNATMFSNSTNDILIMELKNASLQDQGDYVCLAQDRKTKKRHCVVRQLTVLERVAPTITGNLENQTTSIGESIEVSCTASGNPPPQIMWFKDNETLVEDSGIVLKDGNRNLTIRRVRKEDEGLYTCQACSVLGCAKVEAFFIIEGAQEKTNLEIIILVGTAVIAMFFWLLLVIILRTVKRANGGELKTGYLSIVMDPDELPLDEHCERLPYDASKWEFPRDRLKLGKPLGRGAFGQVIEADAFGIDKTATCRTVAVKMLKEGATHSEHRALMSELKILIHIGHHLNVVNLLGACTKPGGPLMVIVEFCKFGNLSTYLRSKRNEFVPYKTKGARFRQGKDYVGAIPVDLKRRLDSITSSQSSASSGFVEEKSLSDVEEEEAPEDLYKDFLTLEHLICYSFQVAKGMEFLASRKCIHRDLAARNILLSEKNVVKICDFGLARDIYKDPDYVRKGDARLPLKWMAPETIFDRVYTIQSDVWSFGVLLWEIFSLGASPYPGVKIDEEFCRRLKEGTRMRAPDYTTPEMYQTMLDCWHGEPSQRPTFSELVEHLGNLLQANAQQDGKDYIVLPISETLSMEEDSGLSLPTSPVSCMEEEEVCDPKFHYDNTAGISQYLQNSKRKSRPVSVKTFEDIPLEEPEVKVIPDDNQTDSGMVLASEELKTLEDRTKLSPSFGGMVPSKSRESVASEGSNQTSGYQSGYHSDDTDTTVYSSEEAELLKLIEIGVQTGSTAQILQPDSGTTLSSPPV
Proto-oncogene tyrosine-protein kinase Src, sequence (P12931 2-536 limits assumed): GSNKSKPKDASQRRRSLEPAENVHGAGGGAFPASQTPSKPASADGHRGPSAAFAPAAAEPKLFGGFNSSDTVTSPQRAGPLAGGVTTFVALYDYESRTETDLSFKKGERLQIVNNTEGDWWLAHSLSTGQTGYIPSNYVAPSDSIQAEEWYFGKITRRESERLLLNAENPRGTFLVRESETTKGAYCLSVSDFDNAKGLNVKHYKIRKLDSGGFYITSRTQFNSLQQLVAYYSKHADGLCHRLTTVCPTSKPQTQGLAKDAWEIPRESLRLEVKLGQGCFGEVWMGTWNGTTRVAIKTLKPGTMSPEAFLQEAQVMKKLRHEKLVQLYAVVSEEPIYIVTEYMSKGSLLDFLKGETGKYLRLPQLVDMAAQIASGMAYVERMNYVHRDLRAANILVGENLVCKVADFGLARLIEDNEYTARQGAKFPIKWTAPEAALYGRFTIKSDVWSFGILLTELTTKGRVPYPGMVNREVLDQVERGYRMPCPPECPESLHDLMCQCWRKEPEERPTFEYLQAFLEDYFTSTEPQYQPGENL
Fibroblast growth factor receptor 1, sequence (P11362 whole entry): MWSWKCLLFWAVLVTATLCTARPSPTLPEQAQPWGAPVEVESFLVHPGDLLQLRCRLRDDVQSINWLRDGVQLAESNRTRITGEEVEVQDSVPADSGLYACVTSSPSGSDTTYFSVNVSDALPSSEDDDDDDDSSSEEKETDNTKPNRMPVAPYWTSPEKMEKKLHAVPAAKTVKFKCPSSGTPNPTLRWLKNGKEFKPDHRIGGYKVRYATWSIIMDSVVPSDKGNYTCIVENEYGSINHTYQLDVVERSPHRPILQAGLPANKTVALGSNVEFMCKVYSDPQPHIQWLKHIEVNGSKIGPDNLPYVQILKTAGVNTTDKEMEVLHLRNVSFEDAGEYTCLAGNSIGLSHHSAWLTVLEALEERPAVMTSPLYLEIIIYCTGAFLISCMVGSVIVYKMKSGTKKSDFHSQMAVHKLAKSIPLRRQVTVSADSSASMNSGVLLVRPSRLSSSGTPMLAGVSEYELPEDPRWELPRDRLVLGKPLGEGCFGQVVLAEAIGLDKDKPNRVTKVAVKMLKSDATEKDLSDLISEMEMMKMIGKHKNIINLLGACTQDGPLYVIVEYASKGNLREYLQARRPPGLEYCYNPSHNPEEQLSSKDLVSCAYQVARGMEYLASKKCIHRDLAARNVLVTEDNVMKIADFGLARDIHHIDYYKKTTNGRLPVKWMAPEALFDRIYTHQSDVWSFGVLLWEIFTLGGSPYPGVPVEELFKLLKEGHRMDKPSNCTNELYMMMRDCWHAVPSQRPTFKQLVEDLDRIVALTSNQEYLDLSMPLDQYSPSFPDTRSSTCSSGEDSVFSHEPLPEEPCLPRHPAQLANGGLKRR
Vascular endothelial growth factor receptor 1, sequence (P17948 whole entry): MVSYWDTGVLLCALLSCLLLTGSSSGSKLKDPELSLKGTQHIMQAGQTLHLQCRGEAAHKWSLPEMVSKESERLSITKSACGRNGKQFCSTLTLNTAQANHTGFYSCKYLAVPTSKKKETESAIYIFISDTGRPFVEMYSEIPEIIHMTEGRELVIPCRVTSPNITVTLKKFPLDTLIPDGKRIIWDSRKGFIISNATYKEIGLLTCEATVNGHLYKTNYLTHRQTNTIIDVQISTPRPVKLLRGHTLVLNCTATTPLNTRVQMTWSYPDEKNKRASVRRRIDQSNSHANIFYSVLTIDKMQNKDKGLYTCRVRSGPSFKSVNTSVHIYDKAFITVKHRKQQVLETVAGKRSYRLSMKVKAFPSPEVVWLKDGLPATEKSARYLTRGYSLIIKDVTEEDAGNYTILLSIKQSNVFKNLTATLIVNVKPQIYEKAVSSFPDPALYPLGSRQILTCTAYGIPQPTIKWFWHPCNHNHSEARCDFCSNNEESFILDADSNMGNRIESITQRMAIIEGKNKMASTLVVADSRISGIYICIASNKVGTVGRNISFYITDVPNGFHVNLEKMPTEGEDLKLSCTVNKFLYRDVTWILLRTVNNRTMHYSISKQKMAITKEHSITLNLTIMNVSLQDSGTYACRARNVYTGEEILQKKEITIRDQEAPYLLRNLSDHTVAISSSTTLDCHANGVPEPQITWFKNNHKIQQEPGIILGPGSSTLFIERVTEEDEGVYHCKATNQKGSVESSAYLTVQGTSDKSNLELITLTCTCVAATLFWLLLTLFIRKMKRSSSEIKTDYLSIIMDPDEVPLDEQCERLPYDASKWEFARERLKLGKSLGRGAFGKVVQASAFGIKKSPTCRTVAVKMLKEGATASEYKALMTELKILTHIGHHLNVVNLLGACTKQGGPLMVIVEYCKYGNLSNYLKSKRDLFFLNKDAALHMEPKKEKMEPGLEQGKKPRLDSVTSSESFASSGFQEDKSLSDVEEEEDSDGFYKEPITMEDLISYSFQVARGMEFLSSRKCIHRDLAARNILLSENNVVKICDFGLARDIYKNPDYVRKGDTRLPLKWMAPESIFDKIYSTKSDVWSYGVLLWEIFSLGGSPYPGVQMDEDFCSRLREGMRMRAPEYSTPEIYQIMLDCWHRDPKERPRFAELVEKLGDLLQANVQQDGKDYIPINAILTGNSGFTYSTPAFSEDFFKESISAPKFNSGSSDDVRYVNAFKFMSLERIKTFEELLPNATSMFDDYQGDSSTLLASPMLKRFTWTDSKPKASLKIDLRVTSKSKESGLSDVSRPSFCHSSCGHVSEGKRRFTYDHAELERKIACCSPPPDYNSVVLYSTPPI

Question: For `COc1cc2c(Nc3c(Cl)ccc4c3OCO4)ncnc2cc1OCc1ccnc(C#N)c1` [4-[({4-[(5-chloro-2H-1,3-benzodioxol-4-yl)amino]-6-methoxyquinazolin-7-yl}oxy)methyl]pyridine-2-carbonitrile], which IC50 [1] is on record?
Answer: Its IC50 is over 100 µM.

Question: What about the IC50 [2] of the same compound?
Answer: Its IC50 is over 100 µM.

Question: Which results are given for `COc1ccc(Cl)c(Nc2ncnc3cc(OCC4CCN(C)CC4)c(OC)cc23)c1` [AZD0530 analogue 35]?
Answer: IC50 [3]: 0.01 µM; IC50 [4]: 0.67 µM

Question: With `COc1cc2c(Nc3c(Cl)ccc4c3OCO4)ncnc2cc1OCCCN1CCCCC1` [BMCL182776 Compound 1] as the compound, how does the IC50 [5] read?
Answer: Its IC50 is 21.7 µM.
